This is an account of results in patent US20260216144A1, “TARGETING MB2 OF THE MYC ONCOGENE AND ITS INTERACTION WITH TRRAP IN CANCER” (priority 2019, published 2026).

The structures appear in SMILES notation. Where two headings read alike, the source gives them in different places.

This assay addresses MYC:TRRAP interaction (Homo sapiens, UniProt P01106+Q9Y4A5). The assay can be described thus: MYC:TRRAP in-cell luminescence complementation assay (NanoBiT; SmB-MYC 1-190 and TRRAP 2033-2283-LgB in HeLa cells). The format is cell-based. The procedure:
HeLa cells plated on Greiner 96-well TC-rated white plates with clear bottoms were used for the following measurements. Reverse transfections were carried out using LipoD293™ before cells were plated. A bluescript KS' plasmid (Addgene) was used as carrier DNA for transfections, and a pcDNA3.1 EGFP plasmid (ThermoFisher) was used as a fluorescence reporter. White light-reflecting film (USA Scientific) was used to cover the bottom of the plates for luminescence measurements. Black light-absorbing film was used to cover the top of the plates for fluorescence measurements. All measurements were taken on a SpectraMax i3 instrument (Molecular Devices).
Transfections were carried out with increasing DNA amounts (1-100 ng per well) of a CMV-driven LgB plasmid and SmB in excess or vice-versa. Background luminesce for the usable range and the amount of DNA needed for vast excess of LgB or SmB were noted. Next, complementation with vast excess either LgB or SmB was used to determine the expression of each of the indicated MYC and TRRAP constructs for a range of DNA amounts per well: 10-100 ng. An optimal ratio of DNA to equalize the expression of each MYC and TRRAP pair was calculated. Then, signal-to-noise ratios were calculated for the indicated MYC and TRRAP pairs, and the pair with the highest ratio was chosen. Finally, the chosen pair was used to determine the optimal DNA transfection mixture. It was determined to be 6.7 ng of a plasmid with a MYC construct, 60 ng of a plasmid with a TRRAP construct and 33.3 ng of the pcDNA 3.1 EGFP plasmid, for each well in a 96-well plate. Unless otherwise indicated, these were the ratios of DNA transfected for this type of assay.
HeLa cells were transfected as above using LipoD293™ with a mixture of SmB-MYC 1-190, TRRAP 2033-2283-LgB, and EGFP in CMV-driven plasmids at the same optimized ratio described above. Two days post-transfection, the media in each well was replaced with fresh media containing each compound from the NCI's sets at 25 μM. Cells were incubated for 2 h with each compound, and luminescence and fluorescence measurements were recorded for each well. Changes in luminescence were normalized to fluorescence. The following pre-plated compound sets were obtained from the NCI/DTP chemical repository and used for this screen:
These chemical sets were used to discover novel small-molecule inhibitors of the MYC:TRRAP complex. SmB-MYC 1-190, TRRAP 2033-2283-LgB, and EGFP were transfected into HeLa cells. Two days post-transfection, compounds were added to the media at 25 μM and cells were incubated for 2h. Luminescence and fluorescence were recorded for each well containing one of the compounds. Changes in luminescence measurements were normalized to fluorescence measurements.
Afterwards, only molecules that reduced luminescence levels to <50% RLU were considered. This set of 46 compounds were incubated at 10 μM with vector-expressing cells. Luminescence complementation was measured and repeated in triplicate measurements. In addition, HeLa cells expressing LgB and SmB alone were incubated with the same compounds to rule out potentially artificial results due to inhibition of luciferase or its complementation. Molecules that induces any significant reduction in luminescence (<0.6) during this control assay were not considered further. Of 2947 molecules, 17 were chosen for further testing and ordered from the NCI/DTP Open Chemical Repository. FIG. 16 describes these chosen compounds.
Using the luminescence assay above as a readout for the MYC:TRRAP interaction, we used a robotic liquid handler to evaluate 2987 additional compounds (25 μM). All primary hits were counter-screened for any activity against the luciferase enzyme itself and for any effects on the expression of the fusion proteins. We set a threshold of 50% inhibition to consider compounds further. Only 17 out of 2987 passed all these criteria (0.6%). […]

[1] abbreviates: Table 1, 46 primary hits at 10 uM, HeLa cells, triplicate measurements.
The mark [2] stands for this setting: Table 1, 46 primary hits at 10 uM, HeLa cells, triplicate measurements, 10 µM.

Chain of MYC:TRRAP interaction (P01106 16-205): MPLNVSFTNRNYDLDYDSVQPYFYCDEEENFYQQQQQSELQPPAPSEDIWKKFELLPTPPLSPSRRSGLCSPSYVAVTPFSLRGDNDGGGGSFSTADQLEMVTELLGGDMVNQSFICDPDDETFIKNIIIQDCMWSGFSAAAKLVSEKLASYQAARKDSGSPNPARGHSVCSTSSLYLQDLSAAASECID
Chain of MYC:TRRAP interaction (Q9Y4A5 2051-2301): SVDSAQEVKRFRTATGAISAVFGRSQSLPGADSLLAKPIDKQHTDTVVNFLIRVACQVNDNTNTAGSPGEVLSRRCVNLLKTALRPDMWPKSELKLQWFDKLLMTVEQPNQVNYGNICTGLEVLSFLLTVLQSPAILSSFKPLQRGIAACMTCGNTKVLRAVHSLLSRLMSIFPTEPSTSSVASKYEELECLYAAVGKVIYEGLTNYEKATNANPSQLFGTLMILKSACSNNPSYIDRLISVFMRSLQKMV

Regarding `CN(C)c1ccc(C=C2C=C(c3ccc4c(c3)CCCC4)OC2=O)cc1` (stereo in doubt) [Compound 46, (3Z)-3-[[4-(dimethylamino)phenyl]methylidene]-5-(5,6,7,8-tetrahydro-naphthalen-2-yl)furan-2-one], under setting [1], the “% Inhibition 10 uM” value is listed as 96.48%. Take `N#CC(=C/N=C(S)/N=N/c1c(O)[nH]c2ccccc12)c1nc2ccccc2s1` (stereo in doubt) [Compound 1030, 1-[(E)-2-(1,3-benzothiazol-2-yl)-2-cyanoethenyl]-3-[(2-hydroxy-1H-indol-3-yl)imino] thiourea]: the “% Inhibition 10 uM” value (Table 2, compounds with >80% similarity to compound 10 (NSC657456), 10 uM) is reported as 48.26%. Take `Nc1ccc(N=Nc2ccccc2Cl)c(N)n1` [Compound 1, 3-[(2-chlorophenyl)diazenyl] pyridine-2,6-diamine]: under setting [1], the “% Inhibition 10 uM” value amounted to 14.38%.

As for `Cc1cc(O)c(C(C)C)cc1C1(c2cc(C(C)C)c(O)cc2C)OC(=O)c2ccccc21` [Compound 2, 3,3-bis(4-hydroxy-2-methyl-5-propan-2-ylphenyl)-2-benzofuran-1-one], under setting [1], the “% Inhibition 10 uM” value is 11.16%. Same read-out and setting: under `Nc1ccc(/N=N/c2ccccc2)c2ccccc12` [Compound 3, 4-phenyldiazenylnaph-thalen-1-amine] stands 22.41%.

For `N=c1ccc(/N=N/c2ccc(O)cc2)c(N)[nH]1` [Compound 4, 4-[(2,6-diaminopyridin-3-yl)diazenyl]phenol], under setting [1], the “% Inhibition 10 uM” value is given as 30.35%.

Turning to `Cc1ccc(NC(=O)c2cc3ccccc3c(/N=N/c3ccccc3O)c2O)c(C)c1` [Compound 5, N-(2,4-dimethylphenyl)-3-hydroxy-4-[(2-hydroxyphenyl)diazenyl] naphthalene-2-carboxamide], the “% Inhibition 10 uM” value under setting [1] turned out to be 37.24%. On the same count and under the same terms, under `COc1ccc(OC)c(-c2cc(=O)c3c(OC)c(OC)c(OC)c(OC)c3o2)c1` [Compound 6, 2-(2,5-dimethoxyphenyl)-5,6,7,8-tetramethoxy-chromen-4-one] stands 33.66%.

Regarding `COC(=O)c1c[nH]c2c1-c1cc(C(=O)OCc3ccccc3)n(S(=O)(=O)c3ccc(C)cc3)c1C(=O)C2=O` [Compound 7, 2-O-benzyl 8-O-methyl 3-(4-methylphenyl) sulfonyl-4,5-dioxo-6H-pyrrolo[3,2-e]indole-2,8-dicarboxylate], the “% Inhibition 10 uM” value under setting [1] is on record as 16.02%. The same measure, in the same setting: under `COC(=O)c1cc(-c2c[nH]cc2C(=O)OCc2ccccc2)cn1S(=O)(=O)c1ccc(C)cc1` [Compound 8, methyl 1-(4-methylphenyl) sulfonyl-4-(4-phenylmethoxycar-bonyl-1H-pyrrol-3-yl)pyrrole-2-carboxylate] stands 33.32%; under `Cc1ccc(Cl)cc1NC(=O)c1cc2ccccc2cc1O` [Compound 9, N-(5-chloro-2-methylphenyl)-3-hydroxy-naphthalene-2-carboxamide], 48.59%. Turning to `N=C1C=C(N)C(=O)c2nc(O)ccc21` [Compound 11, 7-amino-5-imino-1H-quinoline-2,8-dione], the “% Inhibition 10 uM” value runs as follows: under setting [2], 46.89%; (Table 1, 46 primary hits at 10 uM, HeLa cells, triplicate measurements, listed as 43, 10 µM) 57.34%. Regarding `Cc1cc(N(C)C)ccc1/N=N/c1ccc2ncccc2c1` [Compound 12, N,N,3-trimethyl-4-(quinolin-6-yldiazenyl)aniline], under setting [1], the “% Inhibition 10 uM” value was 58.86%. The same measure, in the same setting: under `C/N=c1\sc2c(n1C)C(=O)c1ccccc1C2=O` [Compound 13, 3-methyl-2-methyliminobenzo [f][1,3] benzothiazole-4,9-dione] stands 68.66%. Same read-out and setting: under `COC1=C(N)C(=O)c2nc(-c3nc(C(=O)O)c(C)c(-c4ccc(OC)c(OC)c4O)c3N)ccc2C1=O` [Compound 14, 5-amino-6-(7-amino-6-methoxy-5,8-dioxoquinolin-2-yl)-4-(2-hydroxy-3,4-dimethoxyphenyl)-3-methylpyridine-2-carboxylic acid] stands 40.78%; under `CCN(CC)Cc1cc(/N=N/c2c(O)ccc3c(/N=N/c4ccc(O)c(CN(CC)CC)c4)c(O)ccc23)ccc1O.Cl` [Compound 15, 1,5-bis[[3-(diethyl-aminomethyl)-4-hydroxyphenyl]diazenyl] naphthalene-2,6-diol; hydrochloride], 57.02%; under `Cc1nc(/N=N/c2ccccc2)[nH]c1/N=N/c1ccccc1` [Compound 16, (5-methyl-2-phenyldiazenyl-1H-imidazol-4-yl)-phenyldiazene], 62.4%.

With `CC(=O)OC(C)C1C2=C(C(=O)C[C@]1(C)O)C(=O)c1c(ccc(-c3ccc4c(c3O)C(=O)C3=C(C4=O)C(C(C)OC(C)=O)[C@@](C)(O)CC3=O)c1O)C2=O` (stereo partly drawn) [Compound 17, 1-[(2S)-6-[(6S)-5-(1-acetyloxyethyl)-1,6-dihydroxy-6-methyl-8,9,10-trioxo-5,7-dihydroanthracen-2-yl]-2,5-dihydroxy-2-methyl-4,9,10-trioxo-1,3-dihydroanthracen-1-yl]ethyl acetate], the “% Inhibition 10 uM” value under setting [1] is given as 46.81%.

In the case of `Cc1ccc2c(c1)C(=C(C#N)C#N)CCN2` [Compound 18, 2-(6-methyl-2,3-dihydro-1H-quinolin-4-ylidene)propanedi-nitrile], the “% Inhibition 10 uM” value under setting [1] is listed as 57.21%. The same measure, in the same setting: under `N#C/C(S)=N/c1ccc(F)cc1` [Compound 19, 1-cyano-N-(4-fluorophenyl) methanethioamide] stands 92.01%. For the molecule `CC[C@H](C)[C@@H]1/N=C(\O)[C@@H](NC(=O)c2c3nc4c(C(=O)N[C@@H]5/C(O)=N/[C@@H](C(C)C)C(=O)N6CCC[C@H]6C(=O)N(C)CC(=O)N(C)[C@@H](C(C)C)C(=O)O[C@@H]5C)ccc(C)c4oc-3c(C)c(=O)c2N)[C@@H](C)OC(=O)[C@H](C(C)C)N(C)C(=O)CN(C)C(=O)[C@@H]2CCCN2C1=O` [Compound 20, 2-amino-1-N-[(3S,6S,7R,10S, 16S)-3-[(2S)-butan-2-yl]-7,11,14-trimethyl-2,5,9,12,15-pentaoxo-10-propan-2-yl-8-oxa-1,4,11,14-tetrazabicyclo [14.3.0]nonadecan-6-yl]-4,6-dimethyl-3-oxo-9-N-[(3S,6S,7R, 10S,16S)-7,11,14-trimethyl-2,5,9,12,15-pentaoxo-3,10-di(propan-2-yl)-8-oxa-1,4,11,14-tetrazabicyclo [14.3.0]nonadecan-6-yl]phenoxazine-1,9-dicarboxamide], the “% Inhibition 10 uM” value is on record as 41.4%.

Turning to `COC(=O)c1cc2c(n1S(=O)(=O)c1ccc(C)cc1)C(=O)C(=O)c1[nH]cc(C(=O)OCc3ccccc3)c1-2` [Compound 21, 8-O-benzyl 2-O-methyl 3-(4-methylphenyl) sulfonyl-4,5-dioxo-6H-pyrrolo[3,2-e]indole-2,8-dicarboxylate], the “% Inhibition 10 uM” value under setting [1] is 39.88%. The same measure, in the same setting: under `COc1cc(O)c2c(c1)C(=O)c1cc3c(c(O)c1C2=O)C(OC1OC(C)C(O)C(O)C1OC)C(OC)C(C)(O)C3=O` (centres unmarked) [Compound 22, 4-(4,5-dihydroxy-3-methoxy-6-methyloxan-2-yl)oxy-2,5,7-trihydroxy-3,9-dimethoxy-2-methyl-3,4-dihydrotetracene-1,6,11-trione] stands 52.48%.

For `COC(=O)c1nc(-c2ccc3c(n2)C(=O)C(N)=C(OC)C3=O)c(N)c(-c2ccc(OC)c(OC)c2O)c1C` [Compound 23, methyl 5-amino-6-(7-amino-6-methoxy-5,8-dioxoquinolin-2-yl)-4-(2-hydroxy-3,4-dimethoxyphenyl)-3-methylpyridine-2-carboxylate], the “% Inhibition 10 uM” value is, setting by setting: under setting [2], 50.17%; (Table 1, 46 primary hits at 10 uM, HeLa cells, triplicate measurements, listed as 29, 10 µM) 60.1%.
